Results reported in paper PMC5795052 (Open Biology, 2018).

Tests used:
ACKR3 [1] = assay: β-arrestin 2 recruitment assay (PRESTO-Tango) for ACKR3 co-expressed with pcDNA3 or HA-AVPR1A; type: cell-based, human; settings: ACKR3-Tango/HA-AVPR1A versus ACKR3-Tango/pcDNA3; n = 3; figure 9e,f
Excerpt: (§1) The human AVPR1A cDNA sequence was from the AVPR1A-TANGO plasmid (Addgene, plasmid #66225). The hRLuc cDNA was PCR-amplified from pIRES-Myc-hCXCR4-Rluc, which was generously provided by Dr Michel Bouvier, with primers carrying the AgeI and XbaI sites at either end, respectively, and ligated with the C-terminus of AVPR1A at the corresponding sites. Human CXCR4 and ACKR3 cDNAs were from the CXCR4-TANGO (Addgene, plasmid #66262) and the ACKR3-TANGO (Addgene, plasmid #66265) plasmids. The EYFP cDNA was PCR-amplified from pEYFP with primers harbouring AgeI and XbaI sites and ligated with the C-terminus of ACKR3. All plasmids were confirmed by sequencing.
(§2) hVSMCs (primary aortic smooth muscle cells, ATCC PCS-100-012), A7r5 cells (ATCC-CRL-1444) and HEK293T cells (ATCC-CRL-11268) were purchased from American Type Culture Collection. hVSMCs were cultured in vascular basal media (ATCC PCS-100-030) supplemented with the vascular smooth muscle growth kit (ATCC PCS-100-042), containing 100 U ml^−1 penicillin and 100 µg ml^−1 streptomycin. hVSMCs were used between passages 2–5. HEK293T and A7r5 cells were cultured in high-glucose Dulbecco's Modified Eagle's Medium containing 10 mg ml^−1 sodium pyruvate, 2 mM L-glutamine, 10% (vol/vol) FBS, 1× non-essential amino acids, 100 U ml^−1 penicillin and 100 µg ml^−1 streptomycin. The HTLA cell line, a HEK293 cell line stably expressing a tTA-dependent luciferase reporter and a β-arrestin 2–TEV fusion gene were generously provided by the laboratory of Dr Bryan Roth and maintained in high-glucose Dulbecco's Modified Eagle's Medium supplemented with 10% (vol/vol) FBS, 1× non-essential amino acids, 100 U ml^−1 penicillin, 100 µg ml^−1 streptomycin, 50 µg ml^−1 hygromycin B and 2 µg ml^−1 puromycin. All cells were cultured in a humidified environment at 37°C, 5% CO2.
The PRESTO-Tango (parallel receptorome expression and screening via transcriptional output, with transcriptional activation following arrestin translocation) assay was performed as recently described. The Tango plasmids were a gift from Dr Bryan Roth (all from Addgene). HTLA cells (2.5 × 10^5 per well) were seeded in a six-well plate and transfected with 1.5 µg of the Tango plasmids using Lipofectamine 3000 (ThermoScientific). The following day, transfected HTLA cells (1 × 10^5 cells per well) were plated onto poly-L-lysine precoated 96-well microplates and allowed to attach to the plate surface for at least 4 h prior to treatment. Proteins used for treatment were prepared in twice the final concentration in culture media, added at a 1 : 1 vol/vol ratio and incubated overnight at 37°C, 5% CO2 in a humidified environment. The following morning, media were removed from cell culture plates and replaced with a 100 µl 1 : 5 mixture of Bright-Glo (Promega) and 1× HBSS, 20 mM HEPES solution. Plates were then incubated at room temperature before measuring luminescence on a Biotek Synergy II plate reader.

AVPR1A [2] = target: T1, AVPR1A (Homo sapiens, UniProt P37288); assay: β-arrestin 2 recruitment assay (PRESTO-Tango) for AVPR1A without ACKR3 co-expression; type: cell-based; design: FLAG (N); Tango module (C-terminal fusion of the PRESTO-Tango plasmid); host or cells: HTLA cells (HEK293 line with tTA-dependent luciferase reporter and β-arrestin 2–TEV fusion); settings: AVPR1A-Tango/pcDNA3; n = 3; figure 9c
Excerpt: as §1
(§3) hVSMCs (primary aortic smooth muscle cells, ATCC PCS-100-012), A7r5 cells (ATCC-CRL-1444) and HEK293T cells (ATCC-CRL-11268) were purchased from American Type Culture Collection. hVSMCs were cultured in vascular basal media (ATCC PCS-100-030) supplemented with the vascular smooth muscle growth kit (ATCC PCS-100-042), containing 100 U ml^−1 penicillin and 100 µg ml^−1 streptomycin. hVSMCs were used between passages 2–5. HEK293T and A7r5 cells were cultured in high-glucose Dulbecco's Modified Eagle's Medium containing 10 mg ml^−1 sodium pyruvate, 2 mM L-glutamine, 10% (vol/vol) FBS, 1× non-essential amino acids, 100 U ml^−1 penicillin and 100 µg ml^−1 streptomycin. […]
Target sequence in this assay (P37288 whole entry, the tested form may be a part): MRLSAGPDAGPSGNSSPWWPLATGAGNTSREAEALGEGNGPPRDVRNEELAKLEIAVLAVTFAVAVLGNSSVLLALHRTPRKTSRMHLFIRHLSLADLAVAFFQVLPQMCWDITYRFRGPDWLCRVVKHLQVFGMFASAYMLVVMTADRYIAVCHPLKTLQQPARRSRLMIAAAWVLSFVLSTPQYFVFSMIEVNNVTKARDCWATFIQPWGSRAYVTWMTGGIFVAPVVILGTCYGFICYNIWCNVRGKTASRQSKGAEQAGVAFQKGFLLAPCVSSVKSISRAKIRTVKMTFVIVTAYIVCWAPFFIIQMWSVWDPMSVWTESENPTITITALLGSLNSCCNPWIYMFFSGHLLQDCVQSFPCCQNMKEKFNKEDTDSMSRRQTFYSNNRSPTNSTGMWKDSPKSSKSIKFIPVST

ACKR3 [3] = test system: ACKR3; design: method as in PMID 27875312; settings: BRET-based assay; CXCL12 versus CXCL11; ref [30]; cited from earlier work
[4] = test system: aVP-induced IP3 production in hVSMC; assay: IP3 production (ELISA) in hVSMC upon aVP stimulation; type: cell-based, human; settings: ACKR3 ligands 1 µM, 15 min, then 1 µM aVP for 5 min; n = 4; figure 1f; *p < 0.05 versus vehicle-treated cells
Experimental: as §2
ACKR3 and CXCR4 siRNA gene silencing was performed as described previously. In brief, cells were grown in 2 ml Accell siRNA delivery media per well (Dharmacon) in six-well plates (Nunc). Commercially available Accell ACKR3 and CXCR4 siRNA were reconstituted with 1× siRNA buffer to a stock concentration of 100 µM. Cells were then transfected with 1 µM ACKR3/CXCR4 siRNA and incubated for 72 h at 37°C, 5% CO2. Accell NT-siRNA pool was used as a negative control. After 72 h, cells were assayed for receptor cell surface expression and used for signalling experiments.
IP3 enzyme-linked immunosorbent assays were purchased from LS Bio and performed as per the manufacturer's protocol (LS BIO F10644). In brief, hVSMCs were grown to confluency in six-well dishes (Nunc) and then treated as described in the Results section. Cells were then washed once with cold PBS, 225 µl of cold PBS was added to each well and cells were lysed by ultrasonication. The cell lysate was centrifuged for 10 min at 4°C at 1500g to remove cellular debris. The total protein concentration in the supernatant was determined with the Bio-Rad DC Protein Assay as per the manufacturer's protocol (Bio-Rad 500-0116). Equivalent amounts of total protein were added to the ELISA strips diluted in the provided sample diluent (1 : 5 and 1 : 10). The assay was then completed as per the manufacturer's protocol. Optical densities were read on a Biotek Synergy II microplate reader (absorbance at 450 nm), and IP3 concentrations were extrapolated from the standard curve.

AVPR1A [5] = target: T1, AVPR1A; assay: β-arrestin 2 recruitment assay (PRESTO-Tango) for AVPR1A co-expressed with HA-ACKR3; type: cell-based; design: FLAG (N); Tango module (C-terminal fusion of the PRESTO-Tango plasmid); ACKR3 cDNA from plasmid #66265; host or cells: HTLA cells (HEK293 line with tTA-dependent luciferase reporter and β-arrestin 2–TEV fusion); settings: n = 3, figure 9c
Excerpt: as §1, §3
Target sequence in this assay (P37288 whole entry, the tested form may be a part): as above
Target sequence in this assay (P25106 whole entry partner, the tested form may be a part): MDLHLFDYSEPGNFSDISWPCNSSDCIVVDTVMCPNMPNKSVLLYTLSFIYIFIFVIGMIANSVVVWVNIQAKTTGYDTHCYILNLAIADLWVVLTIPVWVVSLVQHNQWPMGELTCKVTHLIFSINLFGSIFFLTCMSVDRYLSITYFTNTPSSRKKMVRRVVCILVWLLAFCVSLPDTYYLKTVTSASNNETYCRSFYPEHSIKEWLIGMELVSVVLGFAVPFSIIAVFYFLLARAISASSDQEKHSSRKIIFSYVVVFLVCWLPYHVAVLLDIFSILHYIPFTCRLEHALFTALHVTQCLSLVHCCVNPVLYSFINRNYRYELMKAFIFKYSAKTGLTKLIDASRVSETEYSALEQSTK

[6] = test system: rat mesenteric arteries (PE-induced vasoconstriction); assay: Pressure myography, PE-preconstricted isolated rat mesenteric arteries; settings: 10 µM ligand; for effect on PE-induced vasoconstriction, comparison of ACKR3 ligands: 2 µM PE, figure 1d, vehicle n = 5, CXCL11 n = 7, CXCL11 (3–73) n = 9, CXCL12 n = 14, p < 0.05 vehicle versus CXCL11 and CXCL12, p > 0.05 CXCL11 versus CXCL12; for effect on PE-induced vasoconstriction (outer diameter % change): arteries at 80 mmHg preconstricted with 2 µM PE, figure 1a, vehicle n = 4, CXCL11 n = 6, ubiquitin n = 7, *p < 0.05 versus vehicle
Experimental: (§5) (a,b) Pressure myography with rat mesenteric arteries. […] (d) Pressure myography experiments as in (a); PE-induced vasoconstriction. All ACKR3 ligands were tested at a concentration of 10 µM. […] All ACKR3 ligands were tested at a concentration of 10 µM.
(§6) Pressure myography was performed as described in detail previously with slight modifications [7, 63]. Male Sprague–Dawley rats (Harlan) were anaesthetized with 3.5% isoflurane. The mesentery was immediately removed and placed in 130 mM NaCl, 4.7 mM KCl, 1.18 mM KH2PO4, 1.17 mM MgSO4, 14.9 mM NaHCO3, 5.5 mM D-glucose, 0.026 mM EDTA and 1.16 mM CaCl2 aerated with 95% O2, 5% CO2 at 37°C. The animal was then euthanized by cardiectomy and bilateral decompression of the lungs. Third- or fourth-order mesenteric arteries were dissected free from the mesentery, mounted onto two glass cannulae with United States Pharmacopeia (USP) scale 11-0 sutures and pressurized to 80 mmHg in a DMT 110P pressure myograph system (DMT-USA). The intraluminal solution and the vessel bath solution were the same as described before. The vessel bath solution was continuously aerated with 95% O2, 5% CO2 throughout the experiment.

[7] = test system: rat mesenteric arteries (aVP-induced vasoconstriction); assay: Pressure myography, aVP-preconstricted isolated rat mesenteric arteries; settings: 10 µM ligand
Experimental: as §5, §6

ACKR3 [8] = assay: β-arrestin 2 recruitment assay (PRESTO-Tango) for ACKR3; type: cell-based, human
Excerpt: as §1
as §2, with “All cells were cultured in a humidified environment at 37°C, 5% CO2.” left out
The PRESTO-Tango (parallel receptorome expression and screening via transcriptional output, with transcriptional activation following arrestin translocation) assay was performed as recently described. […] Plates were then incubated at room temperature before measuring luminescence on a Biotek Synergy II plate reader.

AVPR1A [9] = assay: Receptor internalization by flow cytometry, AVPR1A; type: cell-based, human; settings: hVSMC, 1 µM agonist, up to 60 min; n = 3; figure 10b
Experimental: (§4) The cells were washed once with ice cold DPBS, blocked and stained with rabbit anti-AVPR1A (Bioss BS-11598R) and mouse anti-ACKR3 (R&D MAB42273) antibodies at 1 : 200 dilution for 1 h on ice. Cells were then washed twice with FACS wash buffer (1× PBS, 2% FBS and 0.01% NaN3), and secondary antibodies were added at a 1 : 500 dilution and incubated for 30 min on ice (donkey anti-rabbit Alexa Fluor 647, Invitrogen A-31573 and donkey anti-mouse Alexa Fluor 488, Invitrogen A-21202). Cells were washed twice with FACS wash buffer and then fixed with 4% paraformaldehyde at room temperature for 15 min. After two additional washes, the cells were counted on a BD FACS Canto II (BD Biosciences) flow cytometer. The fluorescence intensities of at least 3 × 10^4 cells were recorded and analysed using the FlowJo software (Tree Star).

ACKR3 [10] = assay: Receptor internalization by flow cytometry, ACKR3; type: cell-based, human; settings: hVSMC, 1 µM agonist, up to 60 min; n = 3; figure 10c
Experimental: as §4

ACKR3 [11] = test system: ACKR3; design: method as in 2 sources, one per row (each row's own in cited_ref): ref [29]–[32] = [29]; PMID 16940167; doi:10.1084/jem.20052144; 29 Burns JM et al. 2006 A novel chemokine receptor for SDF-1 and I-TAC involved in cell survival, cell adhesion, and tumor development . J. Exp. Med. 203 , 2201 – 2213 . ( doi:10.1084/jem.20052144 ) 1 || [30]; PMID 27875312; doi:10.1074/jbc.M116.762252; 30 Benredjem B , Girard M , Rhainds D , St-Onge G , Heveker N 2017 Mutational analysis of atypical chemokine receptor 3 (ACKR3/CXCR7) interaction with its chemokine ligands CXCL11 and CXCL12 . J. Biol || [31]; PMID 9918548; 31 Gifford AN , Bruneus M , Gatley SJ , Lan R , Makriyannis A , Volkow ND 1999 Large receptor reserve for cannabinoid actions in the central nervous system . J. Pharmacol. Exp. Ther. 288 , 478 – 483 . || [32]; PMID 8779988; doi:10.1152/ajplung.1996.270.2.L199; 32 Ethier MF , Schaefer OP , Samant N , Yamaguchi H , Madison JM 1996 Muscarinic receptor reserve for inhibition of cAMP accumulation in bovine trachealis cells . Am. J. Physiol. 270 , L199 – L207 . 8 ||| ref [24] = [24]; PMID 21757744; doi:10.1074/jbc.M111.233742; 24 Saini V , Staren DM , Ziarek JJ , Nashaat ZN , Campbell EM , Volkman BF , Marchese A , Majetschak M 2011 The CXC chemokine receptor 4 ligands ubiquitin and stromal cell-derived factor-1alpha functi; settings: ref [24]; cited from earlier work

Row | EC50 (ACKR3 [8]; HTLA cells, overnight at 37°C, luminescence, n = 3 independent experiments, 95% confidence interval in brackets, read-out: EC50 (95% CI) β-arrestin 2 recruitment to ACKR3) [nM] | Substance | effect of AVPR1A co-expression on efficacy to recruit β-arrestin 2 to ACKR3-Tango (ACKR3 [1]) | effect of AVPR1A co-expression on potency to recruit β-arrestin 2 to ACKR3-Tango (ACKR3 [1]) | β-arrestin 2 recruitment to AVPR1A-Tango by chemokines, absence of ACKR3 (AVPR1A [2]) | potency to induce β-arrestin recruitment to ACKR3, fold higher than CXCL11 (ACKR3 [3]) | effect of ACKR3 ligand pretreatment on aVP-induced IP3 production [4] | β-arrestin 2 recruitment to AVPR1A-Tango by chemokines, presence of ACKR3 (AVPR1A [5]) | effect on PE-induced vasoconstriction, comparison of ACKR3 ligands [6] | effect on aVP-induced vasoconstriction, comparison of ACKR3 ligands ([7]; 0.5 nM aVP, figure 1e, vehicle n = 4, CXCL11 n = 3, CXCL11 (3–73) n = 3, CXCL12 n = 3, p < 0.05 vehicle versus CXCL11 and CXCL12, p > 0.05 CXCL11 versus CXCL12) | potency to recruit β-arrestin 2 to ACKR3, fold higher than CXCL11 (ACKR3 [8]; CXCL12 versus CXCL11, p < 0.01) | efficacy for β-arrestin 2 recruitment to ACKR3 (in words) (ACKR3 [8]; HTLA cells, n = 3, CXCL11 versus CXCL12) | AVPR1A cell surface expression after agonist (AVPR1A [9]) | ACKR3 cell surface expression after agonist (ACKR3 [10]) | effect on PE-induced vasoconstriction (outer diameter % change) [6] | binding to ACKR3 (ACKR3 [11]) | effect on aVP-induced vasoconstriction (outer diameter % change) ([7]; arteries at 80 mmHg preconstricted with 0.5 nM aVP, figure 1b, *p < 0.05 versus vehicle)
1 | 1.3 | C-X-C chemokine ligand 12 [CXCL12] | significantly reduced the efficacy | without affecting the potency | did not induce β-arrestin 2 recruitment to AVPR1A-Tango | twofold higher | inhibited aVP-induced IP3 production | did not induce β-arrestin 2 recruitment to AVPR1A-Tango | attenuated PE- and aVP-induced vasoconstriction to a similar degree | attenuated PE- and aVP-induced vasoconstriction to a similar degree | 2.2 -fold | comparable efficacy |  |  |  |  | 
2 |  | CXCL11: ACKR3 and CXCR3 agonist, from Protein Foundry | significantly reduced the efficacy | without affecting the potency |  |  |  | did not induce β-arrestin 2 recruitment to AVPR1A-Tango | attenuated PE- and aVP-induced vasoconstriction to a similar degree |  |  |  | time-dependently reduced expression levels of both AVPR1A and ACKR3 | time-dependently reduced expression levels of both AVPR1A and ACKR3 | antagonized PE-induced vasoconstriction |  | 
3 |  | ubiquitin |  |  |  |  |  |  |  |  |  |  |  |  | enhanced PE-induced vasoconstriction | does not bind to ACKR3 | did not affect aVP-induced vasoconstriction
